US20250129070A1, “BIFUNCTIONAL ANDROGEN RECEPTOR COMPOUNDS” (priority 2023, published 2025)

Legend:
AR / CBP ternary complex = assay: Ternary complex formation assay (sandwich ELISA, AR capture / CBP detection) in VCaP cell lysates; type: cell-based; conditions: 1.5 hours treatment, sandwich ELISA (AR capture, CBP or p300 detection)
Summary of the method: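 VCaP cells (50K/well, 5% charcoal-stripped FBS, ≥3 days) treated with bifunctional compound for 1.5 h, then lysed 30 min at 4 °C. AR captured on anti-AR (AR 441) plates; bound CBP or p300 detected by rabbit mAb plus HRP secondary. QuantaRed chemifluorescence read at ex 570/em 585, immediately and at 5 and 15 min.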

VCaP cells = assay: VCaP growth inhibition assay; type: cell-based; conditions: 30 pM R1881, 9 days, CTG
Summary of the method: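 VCaP cells in phenol red-free DMEM/5% CSS, pre-incubated 72 h, then stimulated with R1881 (final 30 pM) and treated with 1:5 serial dilutions (final 100 nM to 10 fM) for 9 days at 37 °C. Viability by CellTiter-Glo luminescence; IC50 from 4-parameter logistic fit of RLU vs concentration.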

Which EC50 (AR / CBP ternary complex) does the source give for `COc1cc(OC2C(C)(C)C(NC(=O)c3ccc(N4CCC(CN5CCC(n6nc(N7CCCc8cc(-c9cnn(C)c9)c(C(F)F)cc87)c7c6CCN(C(C)=O)C7)CC5)C(OC)C4)cc3)C2(C)C)ccc1C#N` (stereo not drawn) [Compound 332, 4-[4-[[4-[5-acetyl-3-[7-(difluoromethyl)-6-(1-methylpyrazol-4-yl)-3,4-dihydro-2H-quinolin-1-yl]-6,7-dihydro-4H-pyrazolo[4,3-c]pyridin-1-yl]-1-piperidyl]methyl]-3-methoxy-1-piperidyl]-N-[3-(4-cyano-3-methoxy-phenoxy)-2,2,4,4-tetramethyl-cyclobutyl]benzamide] here?
Its EC50 is under 1 nM.

What about the IC50 (VCaP cells) of the same molecule?
Its IC50 is at most 0.1 nM.

How did the EC50 (AR / CBP ternary complex) turn out when `CC(=O)N1CCc2c(c(-c3cccc4cc(-c5ccc(C(=O)NCCc6ncc(C(=O)NC7C(C)(C)C(Oc8ccc(C#N)c(Cl)c8)C7(C)C)cn6)nc5)ncc34)nn2C2CCOCC2)C1` (stereo not drawn) [Compound 78, 2-[2-[[5-[8-(5-acetyl-1-tetrahydropyran-4-yl-6,7-dihydro-4H-pyrazolo[4,3-c]pyridin-3-yl)-3-isoquinolyl]pyridine-2-carbonyl]amino]ethyl]-N-[3-(3-chloro-4-cyano-phenoxy)-2,2,4,4-tetramethyl-cyclobutyl]pyrimidine-5-carboxamide] was run?
The EC50 was under 1 nM.

And the IC50 (VCaP cells)?
Its IC50 is 1 to 100 nM.

With `COc1cc(OC2C(C)(C)C(NC(=O)c3ccc(N4CCC(CN5CCC(n6nc(N7CCCc8cc(-c9cnn(C)c9)c(C(F)F)cc87)c7c6CCN(C(C)=O)C7)CC5)(OC)CC4)cc3)C2(C)C)ccc1C#N` (stereo not drawn) [Compound 264, 4-[4-[[4-[5-acetyl-3-[7-(difluoromethyl)-6-(1-methylpyrazol-4-yl)-3,4-dihydro-2H-quinolin-1-yl]-6,7-dihydro-4H-pyrazolo[4,3-c]pyridin-1-yl]-1-piperidyl]methyl]-4-methoxy-1-piperidyl]-N-[3-(4-cyano-3-methoxy-phenoxy)-2,2,4,4-tetramethyl-cyclobutyl]benzamide] as the molecule, how does the EC50 (AR / CBP ternary complex) read?
The EC50 was under 1 nM.

What about the IC50 (VCaP cells) of the same molecule?
The IC50 was 0.1 to 1 nM.

Which results are given for `CC(=O)N1CCc2c(c(N3CCCc4cc(-c5cnn(C)c5)c(C(F)F)cc43)nn2C2CCN(c3ncc(C(=O)NC4C(C)(C)C(Oc5ccc(C#N)c(Cl)c5)C4(C)C)cn3)CC2)C1` (stereo not drawn) [Compound 95, 2-[4-[5-acetyl-3-[7-(difluoromethyl)-6-(1-methylpyrazol-4-yl)-3,4-dihydro-2H-quinolin-1-yl]-6,7-dihydro-4H-pyrazolo[4,3-c]pyridin-1-yl]-1-piperidyl]-N-[3-(3-chloro-4-cyano-phenoxy)-2,2,4,4-tetramethyl-cyclobutyl]pyrimidine-5-carboxamide]?
EC50 (AR / CBP ternary complex): 1 to 10 nM; IC50 (VCaP cells): 0.1 to 1 nM

With `CC(=O)N1CCc2c(c(N3CCCc4ccc(C(F)F)cc43)nn2C2CCN(C(=O)C3CCN(c4ncc(C(=O)NC5C(C)(C)C(Oc6ccc(C#N)c(Cl)c6)C5(C)C)cn4)CC3)CC2)C1` (stereo not drawn) [Compound 122, 2-[4-[4-[5-acetyl-3-[7-(difluoromethyl)-3,4-dihydro-2H-quinolin-1-yl]-6,7-dihydro-4H-pyrazolo[4,3-c]pyridin-1-yl]piperidine-1-carbonyl]-1-piperidyl]-N-[3-(3-chloro-4-cyano-phenoxy)-2,2,4,4-tetramethyl-cyclobutyl]pyrimidine-5-carboxamide] as the molecule, how does the EC50 (AR / CBP ternary complex) read?
Its EC50 is under 1 nM.

And the IC50 (VCaP cells)?
The IC50 was at most 0.1 nM.

With `Cn1c(=O)n(C)c2cc(-c3cccc4cc(-c5ccc(CCC6CCN(c7ncc(C(=O)NC8C(C)(C)C(Oc9ccc(C#N)c(Cl)c9)C8(C)C)cn7)CC6)nc5)ncc34)ccc21` (stereo not drawn) [Compound 232, N-[3-(3-chloro-4-cyano-phenoxy)-2,2,4,4-tetramethyl-cyclobutyl]-2-[4-[2-[5-[8-(1,3-dimethyl-2-oxo-benzimidazol-5-yl)-3-isoquinolyl]-2-pyridyl]ethyl]-1-piperidyl]pyrimidine-5-carboxamide] as the molecule, how does the EC50 (AR / CBP ternary complex) read?
Its EC50 is 10 to 100 nM.

What about the IC50 (VCaP cells) of the same molecule?
Its IC50 is over 100 nM.

Which EC50 (AR / CBP ternary complex) does the source give for `COc1cc(OC2C(C)(C)C(NC(=O)c3ccc(N4CC5(CCC(N6CCC(n7nc(N8CCCc9cc(-c%10cnn(C)c%10)c(C)cc98)c8c7CCN(C(C)=O)C8)CC6)CC5)C4)cc3)C2(C)C)ccc1C#N` (stereo not drawn) [Compound 449, 4-[7-[4-[5-acetyl-3-[7-methyl-6-(1-methylpyrazol-4-yl)-3,4-dihydro-2H-quinolin-1-yl]-6,7-dihydro-4H-pyrazolo[4,3-c]pyridin-1-yl]-1-piperidyl]-2-azaspiro[3.5]nonan-2-yl]-N-[3-(4-cyano-3-methoxy-phenoxy)-2,2,4,4-tetramethyl-cyclobutyl]benzamide] here?
The EC50 was under 1 nM.

And the IC50 (VCaP cells)?
The IC50 was 0.1 to 1 nM.

Which results are given for `COc1cc(OC2C(C)(C)C(NC(=O)c3ccc(N4CC(N5CCCC6(CCC(n7nc(N8CCCc9cc(-c%10cnn(C)c%10)c(C(F)F)cc98)c8c7CCN(C(C)=O)C8)CC6)C5)C4)cc3)C2(C)C)ccc1C#N` (stereo not drawn) [Compound 415, 4-[3-[9-[5-acetyl-3-[7-(difluoromethyl)-6-(1-methylpyrazol-4-yl)-3,4-dihydro-2H-quinolin-1-yl]-6,7-dihydro-4Hpyrazolo[4,3-c]pyridin-1-yl]-2-azaspiro[5.5]undecan-2-yl]azetidin-1-yl]-N-[3-(4-cyano-3-methoxy-phenoxy)-2,2,4,4-tetramethyl-cyclobutyl]benzamide]?
EC50 (AR / CBP ternary complex): 1 to 10 nM; IC50 (VCaP cells): 1 to 100 nM

`C[C@@H]1CC(=O)Nc2cccc(-c3ccc4c(c3)c(-c3cnn(C)c3)nn4C3CCN(c4ncc(C(=O)NC5C(C)(C)C(Oc6ccc(C#N)c(Cl)c6)C5(C)C)cn4)CC3)c2N1` (stereo partly drawn) [Compound 60, N-[3-(3-chloro-4-cyano-phenoxy)-2,2,4,4-tetramethyl-cyclobutyl]-2-[4-[5-[(4R)-4-methyl-2-oxo-1,3,4,5-tetrahydro-1,5-benzodiazepin-6-yl]-3-(1-methylpyrazol-4-yl)indazol-1-yl]-1-piperidyl]pyrimidine-5-carboxamide] was tested. Which EC50 (AR / CBP ternary complex) did it give?
The EC50 was over 100 nM.

And the IC50 (VCaP cells)?
Its IC50 is over 100 nM.

`CC(=O)N1CCc2c(c(N3CCCc4cc(-c5cnn(C)c5)c(C(F)F)cc43)nn2C2CCC(N(C)C3CCN(c4ncc(C(=O)NC5C(C)(C)C(Oc6ccc(C#N)c(Cl)c6)C5(C)C)cn4)CC3)CC2)C1` (stereo not drawn) [Compound 284, 2-[4-[[4-[5-acetyl-3-[7-(difluoromethyl)-6-(1-methylpyrazol-4-yl)-3,4-dihydro-2H-quinolin-1-yl]-6,7-dihydro-4H-pyrazolo[4,3-c]pyridin-1-yl]cyclohexyl]-methyl-amino]-1-piperidyl]-N-[3-(3-chloro-4-cyano-phenoxy)-2,2,4,4-tetramethyl-cyclobutyl]pyrimidine-5-carboxamide] was tested. Which EC50 (AR / CBP ternary complex) did it give?
Its EC50 is under 1 nM.

What about the IC50 (VCaP cells) of the same molecule?
The IC50 was at most 0.1 nM.

How did the EC50 (AR / CBP ternary complex) turn out when `CC(=O)N1CCc2c(c(Nc3ccc(-c4cnn(C)c4)cc3F)nn2CCOCCN2CCN(c3ncc(C(=O)NC4C(C)(C)C(Oc5ccc(C#N)c(Cl)c5)C4(C)C)cn3)CC2)C1` (stereo not drawn) [Compound 1, 2-[4-[2-[2-[5-acetyl-3-[2-fluoro-4-(1-methylpyrazol-4-yl)anilino]-6,7-dihydro-4H-pyrazolo[4,3-c]pyridin-1-yl]ethoxy]ethyl]piperazin-1-yl]-N-[3-(3-chloro-4-cyano-phenoxy)-2,2,4,4-tetramethyl-cyclobutyl]pyrimidine-5-carboxamide] was run?
Its EC50 is under 1 nM.

And the IC50 (VCaP cells)?
Its IC50 is 0.1 to 1 nM.

Which EC50 (AR / CBP ternary complex) does the source give for `COc1cc(OC2C(C)(C)C(NC(=O)c3ccc(N4CCC(N5CC6(CCC(n7nc(N8CCCc9cc(-c%10cnn(C)c%10)c(C(F)F)cc98)c8c7CCN(C(C)=O)C8)CC6)C5)CC4)cc3)C2(C)C)ccc1C#N` (stereo not drawn) [Compound 372, 4-[4-[7-[5-acetyl-3-[7-(difluoromethyl)-6-(1-methylpyrazol-4-yl)-3,4-dihydro-2H-quinolin-1-yl]-6,7-dihydro-4H-pyrazolo[4,3-c]pyridin-1-yl]-2-azaspiro[3.5]nonan-2-yl]-1-piperidyl]-N-[3-(4-cyano-3-methoxy-phenoxy)-2,2,4,4-tetramethyl-cyclobutyl]benzamide] here?
Its EC50 is under 1 nM.

What about the IC50 (VCaP cells) of the same molecule?
The IC50 was at most 0.1 nM.

Which results are given for `CC(=O)N1CCc2c(c(N3CCCc4cc(-c5cnn(C)c5)c(C)cc43)nn2C2CCN(CC3C(C)CN(c4ncc(C(=O)NC5C(C)(C)C(Oc6ccc(C#N)c(Cl)c6)C5(C)C)cn4)CC3C)CC2)C1` (stereo not drawn) [Compound 444, 2-[4-[[4-[5-acetyl-3-[7-methyl-6-(1-methylpyrazol-4-yl)-3,4-dihydro-2H-quinolin-1-yl]-6,7-dihydro-4H-pyrazolo[4,3-c]pyridin-1-yl]-1-piperidyl]methyl]-3,5-dimethyl-1-piperidyl]-N-[3-(3-chloro-4-cyano-phenoxy)-2,2,4,4-tetramethyl-cyclobutyl]pyrimidine-5-carboxamide]?
EC50 (AR / CBP ternary complex): < 1 nM; IC50 (VCaP cells): 0.1 to 1 nM

With `CC(=O)N1CCc2c(c(N3CCCc4cc(-c5cnn(C)c5)c(C)cc43)nn2C2CCN(CC3CCN(c4ncc(C(=O)NC5C(C)(C)C(Oc6ccc(C#N)c(Cl)c6C)C5(C)C)cn4)CC3(C)C)CC2)C1` (stereo not drawn) [Compound 464, 2-[4-[[4-[5-acetyl-3-[7-methyl-6-(1-methylpyrazol-4-yl)-3,4-dihydro-2H-quinolin-1-yl]-6,7-dihydro-4H-pyrazolo[4,3-c]pyridin-1-yl]-1-piperidyl]methyl]-3,3-dimethyl-1-piperidyl]-N-[3-(3-chloro-4-cyano-2-methyl-phenoxy)-2,2,4,4-tetramethyl-cyclobutyl]pyrimidine-5-carboxamide] as the molecule, how does the EC50 (AR / CBP ternary complex) read?
Its EC50 is under 1 nM.

What about the IC50 (VCaP cells) of the same molecule?
The IC50 was at most 0.1 nM.

With `COc1cc(OC2C(C)(C)C(NC(=O)c3ccc(N4CC5(CCC(N6CCC(n7nc(N8CCCc9cc(C#N)c(C)cc98)c8c7CCN(C(C)=O)C8)CC6)CC5)C4)cc3)C2(C)C)ccc1C#N` (stereo not drawn) [Compound 455, 4-[7-[4-[5-acetyl-3-(6-cyano-7-methyl-3,4-dihydro-2H-quinolin-1-yl)-6,7-dihydro-4H-pyrazolo[4,3-c]pyridin-1-yl]-1-piperidyl]-2-azaspiro[3.5]nonan-2-yl]-N-[3-(4-cyano-3-methoxy-phenoxy)-2,2,4,4-tetramethyl-cyclobutyl]benzamide] as the molecule, how does the EC50 (AR / CBP ternary complex) read?
Its EC50 is under 1 nM.

What about the IC50 (VCaP cells) of the same molecule?
The IC50 was 0.1 to 1 nM.
